Among the data in ChEMBL document CHEMBL1153790, “Scoring function for DNA-drug docking of anticancer and antiparasitic compounds based on spectral moments of 2D lattice graphs for molecular dynamics trajectories” (2009) are Ratio values, retold here.

This test can be described thus: Antiproliferative activity against mouse EAC cells assessed as ratio of ID50 of compound to ID50 of 8-methoxypsoralen. It counts as functional, Ehrlich.
Regarding `COc1c2oc(=O)c(C)cc2cc2c(C)coc12`, the Ratio was determined as 0.89.

Turning to `Cc1oc2cc3oc(=O)ccc3cc2c1C`, the Ratio was found to be 1.26.

With `Cc1cc2cc3c(C)coc3c(C)c2oc1=O`, the Ratio stood at 1.34.

Turning to `Cc1oc2cc3oc(=O)c(C)cc3cc2c1C`, the Ratio came to 1.79.

As to `Cc1oc2ccc3ccc(=O)oc3c2c1C`, the Ratio was determined as 1.47.

In the case of `Cc1cc2cc3c(C)coc3cc2oc1=O`, the Ratio was determined as 1.01.

On to `Cc1cc(=O)oc2nc3occc3cc12`, for which the Ratio turned out to be 0.14.

With `Cc1oc2nc3oc(=O)ccc3cc2c1C`, the Ratio is 0.18.

Consider `Cc1coc2nc3oc(=O)ccc3cc12`, for which the Ratio was 0.13.

On to `Cc1c(C)c2cc3c(C)coc3cc2oc1=O`, for which the Ratio came to 0.34.

As for `COCc1cc(=O)n(C)c2c1cc(C)c1oc(C)cc12`, the Ratio was 2.09.

In the case of `Cc1cc(=O)[nH]c2c1cc(C)c1occ(C)c12`, the Ratio came to 4.62.

Take `O=C(c1cc2ccc3occc3c2oc1=O)N(CCO)CCO`: the Ratio is less than 0.01.

On to `CN1CCN(C(=O)c2cc3ccc4occc4c3oc2=O)CC1`, for which the Ratio is given as less than 0.01.

Take `O=C(c1ccccc1)c1cc2ccc3occc3c2oc1=O`: the Ratio is recorded as less than 0.01.

Turning to `CCN(CC)C(=O)c1cc2ccc3occc3c2oc1=O`, the Ratio is less than 0.01.

Turning to `O=C(NCCO)c1cc2ccc3occc3c2oc1=O`, the Ratio is recorded as less than 0.01.

With `CCOCCNC(=O)c1cc2ccc3occc3c2oc1=O`, the Ratio is less than 0.01.

With `CN(C)CCNC(=O)c1cc2ccc3occc3c2oc1=O`, the Ratio is on record as less than 0.01.

As for `NC(=O)c1cc2ccc3occc3c2oc1=O`, the Ratio was determined as 0.05.

As to `O=C(c1cc2ccc3occc3c2oc1=O)N1CCOCC1`, the Ratio amounted to 0.06.

For the molecule `O=C(O)c1cc2ccc3occc3c2oc1=O`, the Ratio is listed as 0.07.

Take `CN(C)C(=O)c1cc2ccc3occc3c2oc1=O`: the Ratio is recorded as 0.07.

For the molecule `COC(=O)c1cc2ccc3occc3c2oc1=O`, the Ratio came out at 0.2.

In the case of `Cc1cc(=O)oc2c1c(C)cc1occ(C)c12`, the Ratio is 5.78.

Turning to `Cc1cc(=O)[nH]c2c1ccc1occ(C)c12`, the Ratio turned out to be 0.48.

In the case of `Cc1oc2nc3oc(=O)ccc3c(C)c2c1C`, the Ratio came to 0.25.

Regarding `Cc1c(C)c2cc3c(C)coc3nc2oc1=O`, the Ratio was 0.67.

For the molecule `Cc1coc2nc3oc(=O)cc(C)c3cc12`, the Ratio stood at 0.68.

Take `Cc1coc2nc3oc(=O)ccc3c(C)c12`: the Ratio stood at 0.97.

Regarding `Cc1oc2nc3oc(=O)c(C)c(C)c3cc2c1C`, the Ratio came out at 1.83.

For `Cc1cc2ccc3occc3c2oc1=O`, the Ratio worked out at 0.2.

For `Cc1c(C)c2ccc3occ(C)c3c2oc1=O`, the Ratio is on record as 0.03.

As to `Cc1c(C)c2ccc3occc3c2oc1=O`, the Ratio stood at 0.35.

Turning to `CCOC(=O)c1cc2ccc3occc3c2oc1=O`, the Ratio was found to be 0.4.

As for `Cc1cc2c(o1)c(C)cc1c(CO)cc(=O)[nH]c12`, the Ratio is 0.66.

Regarding `Cc1cc(=O)[nH]c2c1cc(C)c1oc(CO)c(C)c12`, the Ratio came to 1.07.

Take `Cc1cc2c(o1)c(C)cc1c(C)cc(=O)[nH]c12`: the Ratio is given as 1.36.

For the molecule `Cc1oc2nc3oc(=O)cc(C)c3cc2c1C`, the Ratio is reported as 3.66.

For `CC(=O)c1cc2ccc3occc3c2oc1=O`, the Ratio is on record as less than 0.01.

For `COCc1c(C)oc2ccc3c(C)cc(=O)oc3c12`, the Ratio turned out to be 0.6.

Consider `Cc1coc2cc3oc(=O)cc(CO)c3cc12`, for which the Ratio is on record as 2.32.

Take `Cc1cc2c(o1)c(C)cc1c(CO)cc(=O)n(C)c12`: the Ratio was found to be 5.6.

As for `Cc1cc(=O)oc2c1ccc1occc12`, the Ratio is 0.55.

Regarding `Cc1cc2occ(C)c2c2oc(=O)ccc12`, the Ratio was found to be 5.3.

On to `Cc1cc(=O)oc2c1ccc1occ(C)c12`, for which the Ratio amounted to 5.75.

Consider `Cc1oc2c(C)cc3c(C)cc(=O)[nH]c3c2c1C`, for which the Ratio is 9.25.

As to `Cc1cc2c(ccc3ccc(=O)oc32)o1`, the Ratio turned out to be 0.8.

In the case of `Cc1coc2ccc3ccc(=O)oc3c12`, the Ratio turned out to be 0.81.

Turning to `Cc1oc2ccc3c(C)cc(=O)[nH]c3c2c1C`, the Ratio came to 2.59.

Take `Cc1cc2c(ccc3c(C)cc(=O)oc32)o1`: the Ratio amounted to 1.27.

Consider `O=c1ccc2ccc3occc3c2o1` [ANGELICIN], for which the Ratio worked out at 0.55.

For the molecule `COc1c2ccoc2cc2oc(=O)ccc12` [BERGAPTEN], the Ratio is given as 0.66.

With `COc1c2occc2cc2ccc(=O)oc12` [METHOXSALEN], the Ratio is 1.

`O=c1ccc2cc3ccoc3cc2o1` [PSORALEN]: the Ratio is on record as 1.52.

`Cc1cc2cc3c(C)cc(=O)oc3c(C)c2o1` [TRIOXSALEN]: the Ratio was determined as 27.6.
